Measurements from ChEMBL document CHEMBL1909046, “DrugMatrix in vitro pharmacology data”.

How the values were obtained:
[1] = target: 5-hydroxytryptamine receptor 1B (Rattus norvegicus, UniProt P28564); type: cell membranes, Wistar, Cerebral cortex, Membrane; further: in other assays of this panel Not Active means under 50% inhibition at 10 µM
[2] = target: T1, Amine oxidase [flavin-containing] A (Homo sapiens, UniProt P21397); test: DRUGMATRIX: Monoamine Oxidase MAO-A enzyme inhibition (substrate: Kynuramine); parameters: species or system BTI-TN-5B1-4; conditions: bti-tn-5b1-4; Not Active = under 50% inhibition at 10 µM
T1 sequence (P21397 whole entry): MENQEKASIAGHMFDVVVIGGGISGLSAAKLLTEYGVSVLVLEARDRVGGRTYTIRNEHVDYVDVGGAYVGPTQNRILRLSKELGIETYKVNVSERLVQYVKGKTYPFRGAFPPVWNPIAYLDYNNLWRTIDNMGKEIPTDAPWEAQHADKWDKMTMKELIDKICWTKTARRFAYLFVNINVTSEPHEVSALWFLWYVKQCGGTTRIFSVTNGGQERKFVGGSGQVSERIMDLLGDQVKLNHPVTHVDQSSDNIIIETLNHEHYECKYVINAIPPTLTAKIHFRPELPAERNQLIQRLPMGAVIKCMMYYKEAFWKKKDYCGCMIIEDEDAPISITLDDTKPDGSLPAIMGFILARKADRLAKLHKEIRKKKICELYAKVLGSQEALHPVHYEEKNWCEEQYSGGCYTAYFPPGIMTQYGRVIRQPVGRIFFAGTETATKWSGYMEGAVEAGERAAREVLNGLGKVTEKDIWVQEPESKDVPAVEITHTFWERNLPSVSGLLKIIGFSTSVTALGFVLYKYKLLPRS

[3] = DRUGMATRIX: Sigma2 radioligand binding (ligand: [3H] Ifenprodil); type: cell membranes, Rattus norvegicus, Wistar, Brain, Membrane; conditions: Not Active = under 50% inhibition at 10 µM
[4] = target: T2, Receptor-type tyrosine-protein phosphatase C (Homo sapiens, UniProt P08575); parameters: species or system Escherichia coli;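 further: inhibition of CD45 enzyme activity measured using DiFMUP as substrate; in other assays of this panel Not Active means under 50% inhibition at 10 µM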
T2 sequence (P08575 whole entry): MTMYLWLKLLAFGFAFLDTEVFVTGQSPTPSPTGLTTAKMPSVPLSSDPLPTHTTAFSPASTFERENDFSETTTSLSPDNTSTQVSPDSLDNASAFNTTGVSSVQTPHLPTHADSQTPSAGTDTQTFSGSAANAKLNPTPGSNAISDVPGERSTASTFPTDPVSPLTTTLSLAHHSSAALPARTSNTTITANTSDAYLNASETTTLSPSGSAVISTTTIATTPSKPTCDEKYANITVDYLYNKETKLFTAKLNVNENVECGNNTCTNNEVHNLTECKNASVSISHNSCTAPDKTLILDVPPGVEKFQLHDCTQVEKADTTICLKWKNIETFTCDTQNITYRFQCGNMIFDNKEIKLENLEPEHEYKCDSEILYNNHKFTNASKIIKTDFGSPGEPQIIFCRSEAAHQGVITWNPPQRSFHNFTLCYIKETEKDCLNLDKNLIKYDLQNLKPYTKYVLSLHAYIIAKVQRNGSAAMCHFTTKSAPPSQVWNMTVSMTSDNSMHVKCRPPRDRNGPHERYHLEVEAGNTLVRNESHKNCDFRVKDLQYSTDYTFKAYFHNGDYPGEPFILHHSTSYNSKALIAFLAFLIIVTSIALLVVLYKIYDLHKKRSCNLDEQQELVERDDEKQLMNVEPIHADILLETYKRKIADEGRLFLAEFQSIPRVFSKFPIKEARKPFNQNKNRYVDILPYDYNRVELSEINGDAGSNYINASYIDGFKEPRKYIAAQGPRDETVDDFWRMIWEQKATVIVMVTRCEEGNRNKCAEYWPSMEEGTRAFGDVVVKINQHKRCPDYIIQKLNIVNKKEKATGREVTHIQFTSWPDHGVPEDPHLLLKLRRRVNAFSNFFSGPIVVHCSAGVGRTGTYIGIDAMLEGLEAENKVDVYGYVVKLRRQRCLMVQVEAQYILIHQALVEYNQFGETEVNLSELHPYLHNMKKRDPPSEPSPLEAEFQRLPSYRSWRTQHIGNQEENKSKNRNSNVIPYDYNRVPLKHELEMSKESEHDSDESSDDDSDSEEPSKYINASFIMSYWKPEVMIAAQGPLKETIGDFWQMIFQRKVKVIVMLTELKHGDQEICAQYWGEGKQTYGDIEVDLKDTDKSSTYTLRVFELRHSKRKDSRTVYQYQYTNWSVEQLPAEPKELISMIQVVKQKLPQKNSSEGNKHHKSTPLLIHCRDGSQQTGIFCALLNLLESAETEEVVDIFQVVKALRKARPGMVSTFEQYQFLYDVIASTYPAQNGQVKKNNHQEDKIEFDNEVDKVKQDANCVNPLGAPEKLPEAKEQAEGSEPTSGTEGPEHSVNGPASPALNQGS

[5] = target: T3, 5-hydroxytryptamine receptor 1A (Rattus norvegicus, UniProt P19327); type: cell membranes, Membrane; conditions: cho-k1; further: in other assays of this panel Not Active means under 50% inhibition at 10 µM
T3 sequence (P19327 whole entry): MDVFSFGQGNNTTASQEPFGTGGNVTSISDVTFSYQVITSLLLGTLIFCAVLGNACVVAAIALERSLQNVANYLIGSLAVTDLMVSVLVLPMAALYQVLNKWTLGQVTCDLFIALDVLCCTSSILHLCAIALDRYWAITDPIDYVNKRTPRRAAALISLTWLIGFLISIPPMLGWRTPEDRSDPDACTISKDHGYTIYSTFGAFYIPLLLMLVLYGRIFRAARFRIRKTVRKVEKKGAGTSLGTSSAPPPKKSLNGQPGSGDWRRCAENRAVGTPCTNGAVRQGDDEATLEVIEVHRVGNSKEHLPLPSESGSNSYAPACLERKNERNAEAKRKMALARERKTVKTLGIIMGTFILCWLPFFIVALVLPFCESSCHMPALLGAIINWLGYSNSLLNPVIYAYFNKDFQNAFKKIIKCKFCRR

[6] = DRUGMATRIX: Phosphodiesterase PDE4 enzyme inhibition (substrate: [3H]cAMP + cAMP); conditions: u-937; Not Active = under 50% inhibition at 10 µM

Chain of 5-hydroxytryptamine receptor 1B (P28564 whole entry): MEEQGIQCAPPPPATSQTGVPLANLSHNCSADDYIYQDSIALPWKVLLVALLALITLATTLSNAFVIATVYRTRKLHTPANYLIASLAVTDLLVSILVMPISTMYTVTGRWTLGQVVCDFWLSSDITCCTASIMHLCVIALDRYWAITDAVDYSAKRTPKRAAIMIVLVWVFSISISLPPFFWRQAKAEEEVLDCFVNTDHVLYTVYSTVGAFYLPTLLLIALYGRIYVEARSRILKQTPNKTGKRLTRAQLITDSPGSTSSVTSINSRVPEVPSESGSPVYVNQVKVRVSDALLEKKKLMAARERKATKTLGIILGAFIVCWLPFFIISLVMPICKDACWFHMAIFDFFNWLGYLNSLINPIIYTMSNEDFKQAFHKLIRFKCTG

SMILES	IC50 [1]	IC50 [2]	IC50 [3]	Ki [3]	IC50 [4]	IC50 [5]	IC50 [6]	Ki [6]	IC50 ([3]; read-out: IC50) [nM]	Ki ([3]; read-out: Ki) [nM]
O=C(N[C@H](CO)[C@H](O)c1ccc([N+](=O)[O-])cc1)C(Cl)Cl [CHLORAMPHENICOL]	Not Active	Not Active	Not Active	Not Active	Not Active	Not Active	Not Active	Not Active		
Cn1c(=O)c2c(ncn2CC2OCCO2)n(C)c1=O [DOXOFYLLINE]	Not Active	Not Active	Not Active	Not Active	Not Active	Not Active	Not Active	Not Active		
CCC1=C[C@@H]2CN(C1)Cc1c([nH]c3ccccc13)[C@@](C(=O)OC)(c1cc3c(cc1OC)N(C)[C@H]1[C@@](O)(C(=O)OC)[C@H](OC(C)=O)[C@]4(CC)C=CCN5CC[C@]31[C@@H]54)C2 [VINORELBINE]	Not Active	Not Active	Not Active	Not Active	Not Active	Not Active	Not Active	Not Active		
CC(C(=O)O)c1cccc(C(=O)c2ccccc2)c1 (configuration not stated) [KETOPROFEN]	Not Active	Not Active	Not Active	Not Active	Not Active	Not Active	Not Active	Not Active		
O=c1ccc2ccccc2o1 [COUMARIN]	Not Active	Not Active	Not Active	Not Active	Not Active	Not Active	Not Active	Not Active		
CC1(C)O[C@@H]2C[C@H]3[C@@H]4C[C@H](F)C5=CC(=O)C=C[C@]5(C)[C@H]4[C@@H](O)C[C@]3(C)[C@]2(C(=O)CO)O1 [FLUNISOLIDE]	Not Active	Not Active	Not Active	Not Active	Not Active	Not Active	Not Active	Not Active		
CC1(C)O[C@@H]2C[C@H]3[C@@H]4C[C@H](F)C5=CC(=O)C=C[C@]5(C)[C@@]4(F)[C@@H](O)C[C@]3(C)[C@]2(C(=O)CO)O1 [FLUOCINOLONE ACETONIDE]	Not Active	Not Active	Not Active	Not Active	Not Active	Not Active	Not Active	Not Active		
N=C(Nc1ccccc1)Nc1ccccc1	Not Active	Not Active			Not Active	Not Active	Not Active	Not Active	2640	1620
CC[C@@H](CO)NCCN[C@@H](CC)CO [ETHAMBUTOL]	Not Active	Not Active	Not Active	Not Active	Not Active	Not Active	Not Active	Not Active		
CN1C(=O)COc2c(C(=O)NC3CN4CCC3CC4)cc(Cl)cc21 (configuration not stated) [AZASETRON]	Not Active	Not Active	Not Active	Not Active	Not Active	Not Active	Not Active	Not Active		
O=NN(CCCl)C(=O)NCCCl [CARMUSTINE]	Not Active	Not Active	Not Active	Not Active	Not Active	Not Active	Not Active	Not Active		
O=C(C1CCCCC1)N1CC(=O)N2CCc3ccccc3C2C1 (configuration not stated) [PRAZIQUANTEL]	Not Active	Not Active	Not Active	Not Active	Not Active	Not Active	Not Active	Not Active		
C[C@]12CC[C@@H]3c4ccc(OC(=O)c5ccccc5)cc4CC[C@H]3[C@@H]1CC[C@@H]2O [ESTRADIOL BENZOATE]	Not Active	Not Active	Not Active	Not Active	Not Active	Not Active	Not Active	Not Active		
C[N+](C)(C)CCO.[Cl-] [CHOLINE CHLORIDE]	Not Active	Not Active	Not Active	Not Active	Not Active	Not Active	Not Active	Not Active		
NC(=O)NO [HYDROXYUREA]	Not Active	Not Active	Not Active	Not Active	Not Active	Not Active	Not Active	Not Active		
C[C@@]12C(=O)OC(=O)[C@]1(C)[C@H]1CC[C@@H]2O1 [CANTHARIDIN]	Not Active	Not Active	Not Active	Not Active	Not Active	Not Active	Not Active	Not Active		
O=S(=O)([O-])CCS.[Na+] [MESNA]	Not Active	Not Active	Not Active	Not Active	Not Active	Not Active	Not Active	Not Active		
CCN[C@@H]1C[C@H](N)[C@@H](O[C@H]2OC(CN)=CC[C@H]2N)[C@H](O)[C@H]1O[C@H]1OC[C@](C)(O)[C@H](NC)[C@H]1O [NETILMICIN]	Not Active	Not Active	Not Active	Not Active	Not Active	Not Active	Not Active	Not Active		
O=C1CC2(CCCC2)CC(=O)N1CCCCN1CCN(c2ncccn2)CC1 [BUSPIRONE]	Not Active	Not Active			Not Active		Not Active	Not Active	3380	2080
COc1ccc2cc([C@H](C)C(=O)O)ccc2c1 [NAPROXEN]	Not Active	Not Active	Not Active	Not Active	Not Active	Not Active				
